The source of these data is ChEMBL document CHEMBL4393720, “Design, synthesis and biological evaluation of bromophenol-thiazolylhydrazone hybrids inhibiting the interaction of translation initiation factors eIF4E/eIF4G as multifunctional agents for cancer treatment” (Eur J Med Chem, 2019).

The source made the active and inactive calls. The calls are words filed in the database; no cut-off is given here.

For series [1], the system named is A549. The series is described as follows: Induction of apoptosis in human A549 cells assessed as activation of caspase 3 at 1 to 5 uM incubated for 48 hrs by Western blot analysis. Type of series: functional, cell-based. A general note: A western blot detects proteins with antibodies after separation by electrophoresis.
Series [2] concerns A549. The series is described as follows: In vivo inhibition of eIF4E in human A549 cells xenografted in athymic nude mouse assessed as decrease in phosphorylation of eIF4E at 25 to 50 mg/kg, ip administered once daily for 21 days by immunocytochemistry. Format: functional, organism-based. A general note: Xenograft models place foreign cells or tissue in a host animal.
The nature of series [3]: Subacute toxicity in SPF Kunming mouse assessed as heart morphological changes at 2000 mg/kg, po administered once a day for 14 days by H and E staining based microscopic analysis. Type of series: organism-based. Conditions: in vivo, 336 h.
Series [4] in a line: MRT in male Sprague-Dawley rat at 10 mg/kg, po measured up to 24 hrs by LC/MS-MS analysis. Format: ADME, organism-based. Particulars: in vivo.
The nature of series [5]: AUC (0 to 24 hrs) in female Sprague-Dawley rat at 2 mg/kg, iv measured up to 24 hrs by LC/MS-MS analysis. Particulars: in vivo. Further details: time < 24 hr, dose 2 mg/kg, route intravenous. Format: ADME, organism-based.
Series [6] is described as follows: MRT in female Sprague-Dawley rat at 2 mg/kg, iv measured up to 24 hrs by LC/MS-MS analysis. Format: ADME, organism-based. Particulars: in vivo.
The test system of series [7] is A549. Briefly: Induction of apoptosis in human A549 cells at 1 to 5 uM incubated for 48 hrs by annexin-V and propidium iodide staining based flow cytometric analysis. Type of series: functional, cell-based. In general terms: In flow cytometry, cells or beads pass a laser one at a time.
Series [8] in a line: Subacute toxicity in SPF Kunming mouse assessed as body weight at 2000 mg/kg, po administered once a day for 14 days (reference value: 32g). Format: organism-based. Particulars: in vivo, 336 h.
For series [9], the system named is A549. Briefly: Induction of autophagy in human A549 cells infected with Ad-mCherry-GFP-LC3B assessed as LC3 aggregate formation at 2.5 uM incubated for 48 hrs by fluorescence microscopy. Format: functional, cell-based.
Series [10] concerns A549. Briefly: Induction of apoptosis in human A549 cells assessed as activation of PARP at 1 to 5 uM incubated for 48 hrs by Western blot analysis. Format: functional, cell-based.
The nature of series [11]: Acute toxicity in SPF Kunming mouse assessed as mortality at 500 to 2000 mg/kg, po administered as single dose measured for 14 days. Format: organism-based. Conditions: in vivo, 336 h.

Regarding `Fc1ccc(/C=N/Nc2nc(-c3ccc(C(F)(F)F)cc3)cs2)cc1F`, the result in the series on A549 [1], in the series on A549 [7], in the series with A549 [9] and in the series with A549 [10] was Active. Also, the inhibition result in the series on A549 [2] was “Active”. Moreover, the Activity result is listed as “Non-Toxic” in [3], 30.7 g in series [8] and “Non-Toxic” in [11]. The MRT (usually a mean duration of stay, worked out from the concentration-time curve) worked out at 1.83 h in series [4] and 5.09 h in [6]. The area under the curve AUC(0-t) (as a rule, exposure summed from dosing to a finite time, without extrapolation to infinity) at 24 h in series [5] was 133 µM·h.
